For six molecules, dTm and IC50 results are on record in paper PMC12361511 (The EMBO Journal, 2025).

pIC50: −log10 of the molar value.

In general, pIC50 refers to −log10 of the IC50, conventionally taken in molar units. Lower therefore signals a large IC50.

Test [1] addresses T1, PPP2R1A (Mus musculus, UniProt Q76MZ3).
T1 construct: full length, C-terminal 6xHis, E. coli (BL-21 or Arctic Express), about 65 kDa, isolated subunit; 893-PAL is the native protein in mouse FL5.12 / mPCE cells
Briefly: thermal shift (DSF, SYPRO Orange). The format is binding. To be noted: 5 µM protein, 10 mM NaH2PO4 pH 6.0, 25 mM NaCl, 1 mM β-mercaptoethanol; destabilising.

In test [2] the target is T2, KPNB1.1 (Homo sapiens, UniProt Q14974).
T2 construct: amino acids 1-442 (N-terminal half), N-terminal 10xHis, codon-optimized, E. coli, about 44 kDa
T2 sequence (Q14974 1-442): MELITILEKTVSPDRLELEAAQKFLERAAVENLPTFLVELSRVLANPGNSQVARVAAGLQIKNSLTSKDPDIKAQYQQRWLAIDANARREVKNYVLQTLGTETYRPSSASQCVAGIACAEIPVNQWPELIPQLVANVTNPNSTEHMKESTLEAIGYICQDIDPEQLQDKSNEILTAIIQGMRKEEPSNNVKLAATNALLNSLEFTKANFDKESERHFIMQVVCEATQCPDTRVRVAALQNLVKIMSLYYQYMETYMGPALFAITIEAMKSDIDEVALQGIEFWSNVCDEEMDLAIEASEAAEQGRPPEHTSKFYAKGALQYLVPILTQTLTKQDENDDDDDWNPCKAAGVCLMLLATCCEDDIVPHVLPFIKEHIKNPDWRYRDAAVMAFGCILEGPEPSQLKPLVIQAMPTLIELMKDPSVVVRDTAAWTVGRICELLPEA
In words: thermal shift (DSF, SYPRO Orange). To be noted: 5 µM protein, 10 mM NaH2PO4 pH 6.0, 25 mM NaCl, 1 mM β-mercaptoethanol; destabilising. The format is binding.

Test [3] deals with T2, KPNB1.1. Briefly: thermal shift (DSF, SYPRO Orange); also CD. The format is binding. To be noted: 5 µM protein, 10 mM NaH2PO4 pH 6.0, 25 mM NaCl, 1 mM β-mercaptoethanol; destabilising, reversible on dialysis.
A further test deals with FL5.12. Briefly: cells. To be noted: Mus musculus, FL5.12, 48 h. Also noted: cytotoxicity / viability IC50 in FL5.12 cells at 48 h.
The target of test [4] is T1, PPP2R1A. In words: thermal shift (DSF, SYPRO Orange); also CD. The test is classed as binding. To be noted: 5 µM protein, 10 mM NaH2PO4 pH 6.0, 25 mM NaCl, 1 mM β-mercaptoethanol; destabilising, reversible on dialysis.

T1 sequence (Q76MZ3 2-589): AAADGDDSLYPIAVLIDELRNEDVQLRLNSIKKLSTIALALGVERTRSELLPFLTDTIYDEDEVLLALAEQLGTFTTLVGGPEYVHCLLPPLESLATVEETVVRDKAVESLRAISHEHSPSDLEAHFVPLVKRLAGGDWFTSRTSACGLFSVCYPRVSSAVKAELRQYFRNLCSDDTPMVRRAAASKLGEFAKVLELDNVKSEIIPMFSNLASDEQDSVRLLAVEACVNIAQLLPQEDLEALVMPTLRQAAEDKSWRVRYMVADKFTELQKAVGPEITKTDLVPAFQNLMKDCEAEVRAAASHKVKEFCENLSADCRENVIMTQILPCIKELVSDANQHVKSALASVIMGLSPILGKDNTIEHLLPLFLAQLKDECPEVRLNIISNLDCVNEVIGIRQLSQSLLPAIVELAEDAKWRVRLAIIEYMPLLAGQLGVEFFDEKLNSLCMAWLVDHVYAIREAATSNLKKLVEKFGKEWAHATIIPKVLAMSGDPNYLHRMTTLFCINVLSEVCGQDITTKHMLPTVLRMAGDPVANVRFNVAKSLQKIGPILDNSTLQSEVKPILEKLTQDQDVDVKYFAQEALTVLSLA

Take `CCCCCCCCCCCCC/C=C/[C@@H](O)[C@@H](N)CO` [sphingosine]: the dTm result is “sphingosine triggered conformational changes in both PPP2R1A and KPNB1” on PPP2R1A [1]; “sphingosine triggered conformational changes in both PPP2R1A and KPNB1” at KPNB1.1 [2].

As to `CCCCCCCCCCCCCCC[C@H](O)[C@@H](N)CO` [safingol], the dTm entry at PPP2R1A [1] is “safingol and dimethylsphingosine (DMS) induced conformational changes in PPP2R1A and KPNB1”; on KPNB1.1 [2] it was “safingol and dimethylsphingosine (DMS) induced conformational changes in PPP2R1A and KPNB1”.

On to `CCCCCCCCc1ccc(CCC(N)(CO)CO)cc1` [FTY720], for which the dTm result on PPP2R1A [1] was “SH-BC-893, FTY720, and the natural sphingolipid phytosphingosine reduced rather than increased the Tm of both”; on KPNB1.1 [2] it was “SH-BC-893, FTY720, and the natural sphingolipid phytosphingosine reduced rather than increased the Tm of both”.

For the molecule `CCCCCCCCCCCCC/C=C/[C@@H](O)[C@H](CO)N(C)C` [dimethylsphingosine], the dTm result at PPP2R1A [1] was “safingol and dimethylsphingosine (DMS) induced conformational changes in PPP2R1A and KPNB1”; on KPNB1.1 [2], “safingol and dimethylsphingosine (DMS) induced conformational changes in PPP2R1A and KPNB1”.

For `CCCCCCCCc1ccc([C@H]2CCN[C@@H]2CO)cc1` [SH-BC-893], the dTm entry on KPNB1.1 [3] is “SH-BC-893, FTY720, and the natural sphingolipid phytosphingosine reduced rather than increased the Tm of both”; on PPP2R1A [4] it was “SH-BC-893, FTY720, and the natural sphingolipid phytosphingosine reduced rather than increased the Tm of both”. The molecule also gave a pIC50 in the test on FL5.12 of 5.70.

Turning to `CCCCCCCCCCCCCC[C@@H](O)[C@@H](O)[C@@H](N)CO` [phytosphingosine], the dTm entry is “SH-BC-893, FTY720, and the natural sphingolipid phytosphingosine reduced rather than increased the Tm of both” on PPP2R1A [1]; “SH-BC-893, FTY720, and the natural sphingolipid phytosphingosine reduced rather than increased the Tm of both” at KPNB1.1 [2]. In the test on FL5.12, this molecule had a pIC50 of 5.49.
